This test is described as follows: modulators of MEP2-GFP levels in yeast, dose response, S. cerevisiae, flow cytometry GFP, MLPCN hits (AID 2742).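 Also: GFP tag reports level of MEP2 protein as a downstream target of TOR signalling.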 As to conditions: S. cerevisiae MEP2-GFP strain, flow cytometry fluorescence, 3 h; at 33 µM (top of the series). A general note: Flow cytometry measures light scatter and fluorescence of single cells or particles in a stream.

“And” between values parts separate entries of the source, which are not always exact repeats. Equal values may be shown once. The source made the active and inactive calls.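 The calls were made as follows: active = fitted half-maximal concentration for changing background-corrected GFP signal at or below a set limit; inactive = the rest.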

Turning to `CCOC(=O)CSC1=NC(=O)/C(=C\c2ccc(Cl)cc2)S1`, the GFP fluorescence (kMESF), higher = increase is 4.12 kMESF (inactive).

On to `O=C1C=C(c2ccc(Cl)cc2)C(=O)N1Nc1ccccc1`, for which the GFP fluorescence (kMESF), higher = increase was 5.31 kMESF (inactive).

Regarding `[O-][n+]1cccc2c(Br)cc(Br)c(O)c21`, the GFP fluorescence (kMESF), higher = increase is 5.76 kMESF (inactive).

`O=C(OCn1ncc(Br)c(Br)c1=O)c1c(F)cccc1F`: the GFP fluorescence (kMESF), higher = increase was 4.49 kMESF (inactive).

As for `O=C(NC(=S)NNC(=O)c1cnccn1)c1ccc(F)cc1`, the GFP fluorescence (kMESF), higher = increase is 4.26 kMESF (inactive).

In the case of `Oc1c(C(Nc2nc3ccccc3s2)c2ccco2)ccc2cccnc12` (configuration not stated), the GFP fluorescence (kMESF), higher = increase was 5.51 kMESF (inactive).

For the compound `O=c1cc(CSc2ccc(Cl)cc2)nc(-c2ccccn2)[nH]1`, the GFP fluorescence (kMESF), higher = increase is 3.46 kMESF (inactive).

In the case of `O=[N+]([O-])c1ccc(Sc2nc3ccccc3o2)c([N+](=O)[O-])c1`, the GFP fluorescence (kMESF), higher = increase was 2.65 kMESF (inactive).

Take `O=C(OCn1ncc(Br)c(Br)c1=O)c1ccc(F)cc1`: the GFP fluorescence (kMESF), higher = increase is 5.15 kMESF (inactive).

As to `O=C(CCc1ccccc1)NNC(=S)NC(=O)c1ccccc1`, the GFP fluorescence (kMESF), higher = increase is 5.56 kMESF (inactive).

Take `COc1ccc(N=Nc2ccc(O)c3ncccc23)cc1`: the GFP fluorescence (kMESF), higher = increase is 4.94 kMESF (inactive).

In the case of `COc1ccc2c(c1)c1nnc(SC)nc1n2C`, the GFP fluorescence (kMESF), higher = increase was 1.9 kMESF (inactive).

With `CCCOc1ccc(C(=O)NNC(=S)NC(=O)CC)cc1`, the GFP fluorescence (kMESF), higher = increase is 4.12 kMESF (inactive).

`C/C(=N\NC(=O)c1cccc(Br)c1)c1ccccn1`: the GFP fluorescence (kMESF), higher = increase was 4.33 kMESF (inactive).

For `O=C(COc1c(Br)cc(Br)c2cccnc12)N1CCc2ccccc2C1`, the GFP fluorescence (kMESF), higher = increase was 4.11 kMESF (inactive).

Take `COc1ccc(NC(=O)/C(C#N)=C/c2ncc([N+](=O)[O-])n2C)c(OC)c1`: the GFP fluorescence (kMESF), higher = increase is 4.5 kMESF (inactive).

`COc1ccc(N2C(=O)C(Cl)=C(NCc3ccccc3)C2=O)cc1`: the GFP fluorescence (kMESF), higher = increase is 3.91 kMESF (inactive).

As to `O=C(C#Cc1ccccc1)c1cccc([N+](=O)[O-])c1`, the GFP fluorescence (kMESF), higher = increase was 4.67 kMESF (inactive).

Turning to `O=C1CCN(S(=O)(=O)c2ccccc2)CCN1CCOCc1ccc(F)cc1`, the GFP fluorescence (kMESF), higher = increase was 1.97 kMESF (inactive).

As for `CCn1c(=O)c(C(C)=O)c(O)c2ccccc21`, the GFP fluorescence (kMESF), higher = increase was 3.81 kMESF (inactive).

Regarding `O=C(/C=C/c1ccccn1)c1ccc(Br)cc1O`, the GFP fluorescence (kMESF), higher = increase is 2.38 kMESF (inactive).

As for `O=C(NNC(=S)NC(=O)C12CC3CC(CC(C3)C1)C2)c1ccncc1`, the GFP fluorescence (kMESF), higher = increase is 6.72 kMESF (inactive).

As to `Oc1c(CN2CCN(c3ccccc3)CC2)cc(Br)c2cccnc12`, the GFP fluorescence (kMESF), higher = increase is 7.37 kMESF (inactive).

`Cc1cc(C)c2c(c1)/C(=C/C(=O)c1ccc(Br)s1)C(=O)N2`: the GFP fluorescence (kMESF), higher = increase is 3.51 kMESF (inactive).

Turning to `CC(OC(=O)c1ccco1)C(=O)Nc1nc(-c2ccccc2)cs1` (configuration not stated), the GFP fluorescence (kMESF), higher = increase was 2.67 kMESF (inactive).

Turning to `CCOC(=O)c1ccc(N=Cc2nc(-c3ccccc3)oc2OC(C)=O)cc1`, the GFP fluorescence (kMESF), higher = increase is 5.65 kMESF (inactive).

Take `O=C(OCC(=O)N1CCN(C(=O)c2ccco2)CC1)c1cc(-c2ccc(F)cc2)nc2ccccc12`: the GFP fluorescence (kMESF), higher = increase is 4.46 kMESF (inactive) and 3.18 kMESF (inactive).

Turning to `Cc1ccc(/C=C/C(=O)c2ccc([N+](=O)[O-])o2)cc1`, the GFP fluorescence (kMESF), higher = increase is 3.92 kMESF (inactive).

Regarding `O/C=c1\ccc2cccc3nc(C(F)(F)F)nc1c23`, the GFP fluorescence (kMESF), higher = increase was 14.3 kMESF (inactive).

Take `N#C/C(=C\c1ccccn1)c1nc2ccccc2s1`: the GFP fluorescence (kMESF), higher = increase was 58.7 kMESF (inactive).

On to `COc1ccc([N+](=O)[O-])c(S(=O)(=O)c2ccc(Cl)cc2)n1`, for which the GFP fluorescence (kMESF), higher = increase is 4.42 kMESF (inactive).

On to `Cc1ccccc1OCCOC(=O)c1ccc(S(=O)(=O)N2CCCC2)cc1`, for which the GFP fluorescence (kMESF), higher = increase is 1.52 kMESF (inactive).

With `O=C1N(c2ccccc2C(F)(F)F)O[C@@]1(c1ccccc1)C1CCCC1`, the GFP fluorescence (kMESF), higher = increase was 2.17 kMESF (inactive).

`Nc1nc(N)c2nc(CNc3ccc(C(=O)NC(CCC(=O)O)C(=O)O)cc3)cnc2n1` (configuration not stated): the GFP fluorescence (kMESF), higher = increase was 1.62 kMESF (inactive).

`Nc1ccccc1C#CC(=O)c1ccccc1`: the GFP fluorescence (kMESF), higher = increase was 6.68 kMESF (inactive).

Turning to `C/C(=N\Nc1ncnc2sc(C)c(C)c12)c1ccccn1`, the GFP fluorescence (kMESF), higher = increase was 38.2 kMESF (inactive).

Take `O=c1/c(=C/c2cccc3ccccc23)sc2ncnn12`: the GFP fluorescence (kMESF), higher = increase is 4.23 kMESF (inactive).

On to `Cc1ccc(S(=O)(=O)N2CCCC2C(=O)NCc2ccncc2)cc1` (configuration not stated), for which the GFP fluorescence (kMESF), higher = increase was 2.1 kMESF (inactive).

Turning to `C/C(=N\NC(=O)c1cc2ccccc2cc1O)c1ccccn1`, the GFP fluorescence (kMESF), higher = increase is 3.61 kMESF (inactive).

For `Oc1ccc2ccccc2c1/C=N/Nc1nnc(-c2ncc[nH]2)c2ccccc12`, the GFP fluorescence (kMESF), higher = increase is -21.2 kMESF (inactive).

As for `CSC1=NS(=O)(=O)c2c(C)nn(C)c2S1`, the GFP fluorescence (kMESF), higher = increase was 4.13 kMESF (inactive).

Turning to `CS(=O)(=O)N1N=C(c2ccccc2)CC1c1ccc2c(c1)OCO2` (configuration not stated), the GFP fluorescence (kMESF), higher = increase was 78.8 kMESF (inactive).

Regarding `O=C(Nc1ccc(NC(=O)c2cc3ccccc3o2)cc1)c1ccco1`, the GFP fluorescence (kMESF), higher = increase is 2.1 kMESF (inactive).

As for `Cc1ccc(C(c2cc(Cl)c3cccnc3c2O)N2CCN(C)CC2)cc1` (configuration not stated), the GFP fluorescence (kMESF), higher = increase is 3.22 kMESF (inactive).

`CC(C)(C)n1nc(-c2ccc(F)cc2)c2c(N)ncnc21`: the GFP fluorescence (kMESF), higher = increase is 4.89 kMESF (inactive).

Turning to `Cc1ccccc1N1C(=O)C(Cl)=C(N2CCN(c3ccccc3)CC2)C1=O`, the GFP fluorescence (kMESF), higher = increase is 2.9 kMESF (inactive).

Consider `COc1ccc2c(c1)S/C(=C\C(=O)c1ccncc1)N2C`, for which the GFP fluorescence (kMESF), higher = increase was 2.67 kMESF (inactive).

In the case of `Cc1c(C(=O)Nc2nc(-c3ccccn3)cs2)oc2ccccc12`, the GFP fluorescence (kMESF), higher = increase was 4.49 kMESF (inactive).

For `COc1ccc(-c2cc(C(F)(F)F)nc(S(C)(=O)=O)n2)cc1`, the GFP fluorescence (kMESF), higher = increase was 5.2 kMESF (inactive).

Regarding `O=C1C(Cl)=C(N2CCN(Cc3ccccc3)CC2)C(=O)N1c1ccccc1`, the GFP fluorescence (kMESF), higher = increase was 3.31 kMESF (inactive).

For `O=C(O)c1cccc(S(=O)(=O)Nc2ccc(S(=O)(=O)N3CCOCC3)cc2)c1`, the GFP fluorescence (kMESF), higher = increase is 2.77 kMESF (inactive).

`N/C(Cc1ccc(Cl)cc1Cl)=N\OC(=O)c1ccccc1`: the GFP fluorescence (kMESF), higher = increase is 2.82 kMESF (inactive).

`O=C1ON=C(c2ccc(Cl)cc2)/C1=C/c1ccc(O)cc1`: the GFP fluorescence (kMESF), higher = increase is 3.61 kMESF (inactive).

For `O=C1N(c2ccccc2C(F)(F)F)O[C@@]1(c1ccccc1)C1CCCCC1`, the GFP fluorescence (kMESF), higher = increase was 2.87 kMESF (inactive).

Turning to `CCc1ccc(C(=O)/C=C/c2ccc([N+](=O)[O-])o2)cc1`, the GFP fluorescence (kMESF), higher = increase is 6.79 kMESF (inactive).

As to `O=C1c2cccc3c([N+](=O)[O-])ccc(c23)C(=O)N1O`, the GFP fluorescence (kMESF), higher = increase was 22.1 kMESF (inactive).

In the case of `COc1cc(CNC(=O)CCCCCCC(C)C)ccc1O`, the GFP fluorescence (kMESF), higher = increase is 2.32 kMESF (inactive).

For the compound `COc1cc(N=c2ssnc2Cl)cc(OC)c1`, the GFP fluorescence (kMESF), higher = increase is 4.07 kMESF (inactive).

Turning to `CCSc1nnc(NC(=O)c2ccccn2)s1`, the GFP fluorescence (kMESF), higher = increase was 4.39 kMESF (inactive).

Regarding `N=C1/C(=C\c2coc3ccccc3c2=O)C(=O)N=C2SC(c3ccncc3)=NN12`, the GFP fluorescence (kMESF), higher = increase was -3.13 kMESF (inactive).

`COc1ccc(NC(=O)/C(Cl)=C(/Cl)S(=O)Cc2ccccc2)cn1` (configuration not stated): the GFP fluorescence (kMESF), higher = increase was 4.75 kMESF (inactive).

For the compound `O=C(Nc1ccc(Cl)cc1Cl)c1cccc(N2C(=O)C=CC2=O)c1`, the GFP fluorescence (kMESF), higher = increase is 4.39 kMESF (inactive).

Turning to `O=c1c2cnn(-c3ccccc3)c2ncn1Cc1ccco1`, the GFP fluorescence (kMESF), higher = increase is 1.97 kMESF (inactive).

Take `Cc1ccc(/C=C2\C(=O)NC(=S)N(c3ccccc3F)C2=O)s1`: the GFP fluorescence (kMESF), higher = increase is 4.49 kMESF (inactive).

`Cc1nc2ccc(NC(=O)c3oc4ccc(F)cc4c3C)cc2s1`: the GFP fluorescence (kMESF), higher = increase was 2.07 kMESF (inactive).

As to `O=C(/C=C/c1cc(Br)ccc1O)c1ccco1`, the GFP fluorescence (kMESF), higher = increase is 6.67 kMESF (inactive).

For the compound `CN1C(=O)/C(=N\OC(=O)c2cccc3ccccc23)c2ccccc21`, the GFP fluorescence (kMESF), higher = increase was 3.68 kMESF (inactive).

Consider `O=C(Nc1nc(-c2ccccn2)cs1)C1COc2ccccc2O1` (configuration not stated), for which the GFP fluorescence (kMESF), higher = increase was 5.21 kMESF (inactive).

Regarding `O=[N+]([O-])c1ccc(-c2cn3nc(-c4ccccc4)c(-c4ccccc4)nc3n2)cc1`, the GFP fluorescence (kMESF), higher = increase is 4.08 kMESF (inactive).

Take `CCOC(=O)Cn1cc(/C=C/[N+](=O)[O-])c2ccccc21`: the GFP fluorescence (kMESF), higher = increase is 4.22 kMESF (inactive).

For `Cc1ccc2nc(Cl)c3nnnn3c2c1`, the GFP fluorescence (kMESF), higher = increase is 4.36 kMESF (inactive).

As for `O=C1C=C(c2ccccc2)C(=O)N1Nc1ccccc1`, the GFP fluorescence (kMESF), higher = increase is 6.2 kMESF (inactive).

Take `Cc1ccc(N2C(=O)C(Cl)=C(Nc3c(C)n(C)n(-c4ccccc4)c3=O)C2=O)cc1`: the GFP fluorescence (kMESF), higher = increase was 1.97 kMESF (inactive).

In the case of `C/C(=N/NC(=O)c1ccc(C(C)(C)C)cc1)c1ccccn1`, the GFP fluorescence (kMESF), higher = increase is 5.35 kMESF (inactive).

Turning to `CC(C)[C@]1(c2ccc(Cl)cc2)ON(c2ccccc2C(F)(F)F)C1=O`, the GFP fluorescence (kMESF), higher = increase was 2.37 kMESF (inactive).

`Cc1ccc(N2C(=O)CC(Sc3ncn[nH]3)C2=O)cc1C` (configuration not stated): the GFP fluorescence (kMESF), higher = increase is 3.74 kMESF (inactive).

With `COc1ccccc1C(=O)NNC(=S)NC(=O)c1ccco1`, the GFP fluorescence (kMESF), higher = increase is 3.64 kMESF (inactive).

These data come from PubChem BioAssay AID2742 (NMMLSC, 2010).
